Experimental data as given in patent US10105357B2, “Indication of antibiotic drugs for preparation of cancer inhibition pharmaceutical composition” (LAUNX BIOMEDICAL CO., LTD., priority 2014, dated 2018).
Where a name gives a salt, the structure may show the parent alone. Read-outs that look alike come from different tables or passages of the source.

Legend:
[1] = tested on: HL-60 (Acute Promyelocytic Leukemia); test: Cell viability analysis, leukemia HL-60; type: cell-based, human; conditions: Homo sapiens, HL-60, 72 h, read-out: cell viability (survival rate), HL-60, drug 10 μM, 72 hours, WST-1, OD450 nm
[2] = tested on: BCC (basal cell carcinoma); test: Cell viability analysis, skin cancer BCC; type: cell-based, human; conditions: Homo sapiens, 72 h, read-out: The results of antibiotic drug inhibiting cancer cell lines (cell viability analysis), BCC
BxPC-3 = test: Cell viability analysis, pancreatic cancer BxPC-3; type: cell-based, human; conditions: Homo sapiens, BXPC-3, 72 h, read-out: The results of antibiotic drug inhibiting cancer cell lines (cell viability analysis), BxPC-3
[3] = tested on: HI650 (Lung Adenocarcinoma); test: Cell viability analysis, lung cancer HI650; type: cell-based, human; conditions: Homo sapiens, NCI-H1650, 72 h
[4] = tested on: HeLa (Cervix Adenocarcinoma); test: Cell viability analysis, cervical cancer HeLa; type: cell-based, human; conditions: Homo sapiens, HeLa, 72 h
[5] = tested on: PC3 (p53−) (Prostate Adenocarcinoma); test: Cell viability analysis, prostate cancer PC3; type: cell-based, human; conditions: Homo sapiens, 72 h
[6] = tested on: HepG2 (Hepatocellular Carcinoma); test: Cell viability analysis, hepatic cancer HepG2; type: cell-based, human; conditions: Homo sapiens, HepG2, 72 h
[7] = tested on: Hep3B (hepatocellular carcinoma); test: Cell viability analysis, hepatic cancer Hep3B; type: cell-based, human; conditions: Homo sapiens, Hep3B, 72 h, read-out: The results of antibiotic drug inhibiting cancer cell lines (cell viability analysis), Hep3B
[8] = tested on: A375 (Amelanotic Melanoma); test: Cell viability analysis, skin cancer A375; type: cell-based, human; conditions: Homo sapiens, A-375, 72 h
U-2OS = test: Cell viability analysis, osteosarcoma U-2OS; type: cell-based, human; conditions: Homo sapiens, U2OS, 72 h, read-out: The results of antibiotic drug inhibiting cancer cell lines (cell viability analysis), U2OS
NIH: OVCAR-3 = test: Cell viability analysis, ovarian cancer NIH: OVCAR-3; type: cell-based, human; conditions: Homo sapiens, OVCAR-3, 72 h, read-out: The results of antibiotic drug inhibiting cancer cell lines (cell viability analysis), NIH-OVCAR-3
[9] = tested on: LoVo (Colorectal Adenocarcinoma); test: Cell viability analysis, colon cancer LoVo; type: cell-based, human; conditions: Homo sapiens, LoVo, 72 h
[10] = tested on: HCT116 (p53+) (Colorectal Carcinoma)
[11] = tested on: MKN-45 (Gastric Adenocarcinoma); test: Cell viability analysis, gastric cancer MKN-45; type: cell-based, human; conditions: Homo sapiens, MKN-45, 72 h
[12] = tested on: SAS (Tongue squamous cell carcinoma); test: Cell viability analysis, tongue cancer SAS; type: cell-based, human; conditions: Homo sapiens, 72 h, read-out: The results of antibiotic drug inhibiting cancer cell lines (cell viability analysis), SAS
[13] = tested on: AGS (Gastric Adenocarcinoma); test: Cell viability analysis, gastric cancer AGS; type: cell-based, human; conditions: Homo sapiens, 72 h
cancer cell lines = test: Cell viability analysis (WST-1) on cancer cell lines; type: cell-based, human; conditions: drug 10 μM, 72 hours, WST-1; Table 3
AsPC-1 = test: Cell viability analysis, pancreatic cancer AsPC-1; type: cell-based, human; conditions: Homo sapiens, ASPC1, 72 h, read-out: The results of antibiotic drug inhibiting cancer cell lines (cell viability analysis), AsPC-1
TOV-21G = test: Cell viability analysis, ovarian cancer TOV-21G; type: cell-based, human; conditions: Homo sapiens, TOV21G, 72 h, read-out: The results of antibiotic drug inhibiting cancer cell lines (cell viability analysis), TOV-21G
[14] = tested on: TSGH-8301 (Urinary Bladder Carcinoma); test: Cell viability analysis, bladder cancer TSGH-8301; type: cell-based, human; conditions: Homo sapiens, 72 h
[15] = tested on: MDA-MB-231 (Mammary Gland, Adenocarcinoma); test: Cell viability analysis, breast cancer MDA-MB-231; type: cell-based, human; conditions: Homo sapiens, MDA-MB-231, 72 h, read-out: The results of antibiotic drug inhibiting cancer cell lines (cell viability analysis), MDA-MB231
T24 = test: Cell viability analysis, bladder cancer T24; type: cell-based, human; conditions: Homo sapiens, T-24, 72 h, read-out: The results of antibiotic drug inhibiting cancer cell lines (cell viability analysis), T24
[16] = tested on: C-33A (Cervical carcinoma); test: Cell viability analysis, cervical cancer C-33A; type: cell-based, human; conditions: Homo sapiens, C-33-A, 72 h, read-out: The results of antibiotic drug inhibiting cancer cell lines (cell viability analysis), C-33A
[17] = tested on: A549 (Lung Adenocarcinoma); test: Cell viability analysis, lung cancer A549; type: cell-based, human; conditions: Homo sapiens, A549, 72 h

Question: Which results are given for `CN(C)[C@@H]1C(O)=C(C(N)=O)C(=O)[C@@]2(O)C(O)=C3C(=O)c4c(O)ccc(Cl)c4[C@@](C)(O)[C@H]3C[C@@H]12` [Chlortetracycline HCl]?
Answer: viability at 10 µM [1]: 83.9%; viability at 10 µM [2]: 97.1%; viability at 10 µM (BxPC-3): 63.7%; viability at 10 µM ([3]; read-out: The results of antibiotic drug inhibiting cancer cell lines (cell viability analysis), H1650, H1650, repeated experiment): 88.5%; viability at 10 µM ([3]; read-out: cell viability (survival rate), H1650, drug 10 μM, 72 hours, WST-1, OD450 nm): 59.9%; viability at 10 µM ([4]; read-out: The results of antibiotic drug inhibiting cancer cell lines (cell viability analysis), HeLa, repeated experiment): 84%; viability at 10 µM ([4]; read-out: cell viability (survival rate), HeLa, drug 10 μM, 72 hours, WST-1, OD450 nm): 83.9%; viability at 10 µM ([5]; read-out: The results of antibiotic drug inhibiting cancer cell lines (cell viability analysis), PC-3, PC-3, repeated experiment): 108%; viability at 10 µM ([5]; read-out: cell viability (survival rate), PC3, drug 10 μM, 72 hours, WST-1, OD450 nm): 38.2%; viability at 10 µM ([6]; read-out: The results of antibiotic drug inhibiting cancer cell lines (cell viability analysis), HepG2, HepG2, repeated experiment): 113%; viability at 10 µM ([6]; read-out: cell viability (survival rate), HepG2, drug 10 μM, 72 hours, WST-1, OD450 nm): 75%; viability at 10 µM [7]: 117%; viability at 10 µM ([8]; read-out: The results of antibiotic drug inhibiting cancer cell lines (cell viability analysis), A375, A375, repeated experiment): 108%; viability at 10 µM ([8]; read-out: cell viability (survival rate), A375, drug 10 μM, 72 hours, WST-1, OD450 nm): 49.2%; viability at 10 µM (U-2OS): 80.3%; viability at 10 µM (NIH: OVCAR-3): 99.3%; viability at 10 µM ([9]; read-out: The results of antibiotic drug inhibiting cancer cell lines (cell viability analysis), LoVo, repeated experiment): 74.4%; viability at 10 µM ([9]; read-out: cell viability (survival rate), LoVo, drug 10 μM, 72 hours, WST-1, OD450 nm): 61.4%; viability [10]: 91.5%; viability at 10 µM ([11]; read-out: The results of antibiotic drug inhibiting cancer cell lines (cell viability analysis), MKN-45, MKN-45, repeated experiment): 142%; viability at 10 µM ([11]; read-out: cell viability (survival rate), MKN-45, drug 10 μM, 72 hours, WST-1, OD450 nm): 43%; viability at 10 µM [12]: 97.4%; viability at 10 µM ([13]; read-out: The results of antibiotic drug inhibiting cancer cell lines (cell viability analysis), AGS, repeated experiment): 99.9%; viability at 10 µM ([13]; read-out: cell viability (survival rate), AGS, drug 10 μM, 72 hours, WST-1, OD450 nm): 69.7%; inhibition effect on different cancer cell lines (cancer cell lines): significant inhibition effect; viability at 10 µM (AsPC-1): 82.1%; viability at 10 µM (TOV-21G): 92.2%; viability at 10 µM ([14]; read-out: The results of antibiotic drug inhibiting cancer cell lines (cell viability analysis), TSGH-8301, TSGH-8301, repeated experiment): 152%; viability at 10 µM ([14]; read-out: cell viability (survival rate), TSGH, drug 10 μM, 72 hours, WST-1, OD450 nm): 50.4%; viability at 10 µM [15]: 83.2%; viability at 10 µM (T24): 122%; viability at 10 µM [16]: 88%; viability at 10 µM ([17]; read-out: The results of antibiotic drug inhibiting cancer cell lines (cell viability analysis), A549, A549, repeated experiment): 99.3%; viability at 10 µM ([17]; read-out: cell viability (survival rate), A549, drug 10 μM, 72 hours, WST-1, OD450 nm): 45.8%
